≈ marks a conversion by molar mass, not a printed value.
Key:
[1] = for Solubility, FaSSGF: pH 1.67; for Solubility, FaSSIF: pH 6.57
Method: Fasted simulated intestinal fluid (FaSSIF) (pH=6.57) was prepared by dissolving NaOH pellets (0.105 g), NaH2PO4·H2O (0.9875 g), and NaCl (1.5475 g) in distilled water (225 mL) and adjusting the pH to 6.57 by adding 1 N NaOH solution and 1 N HCl. Water was then added to a volume of 250 mL to produce phosphate buffer. Biorelevant powder (0.56 g) was dissolved in the phosphate buffer (125 mL), then made up to 250 mL using phosphate buffer. The prepared solution was left standing for 2 hours and then used for solubility measurements.
Fasted simulated gastric fluid (FaSSGF) (pH=1.67) was prepared by dissolving NaCl (0.5 g) in distilled water (225 mL). The pH was adjusted to 1.67 using 1 N HCl, then the solution was made up to 250 mL using distilled water to produce NaCl/HCl solution. Biorelevant powder (0.015 g) was dissolved in NaCl/HCl solution (125 mL), then made up to 250 mL using NaCl/HCl solution. The prepared solution was ready for use.
Solubility of crystalline Form A and a mixture of crystalline Form A and crystalline Form C was measured in fasted simulated intestinal fluid (FaSSIF), fasted simulated gastric fluid (FaSSGF), and water at 37° C. Thin slurries were stirred overnight and then supernatant was collected for HPLC analysis.
Solubility of crystalline Form H of a hydrochloride salt of Compound (I), crystalline Form Tr of a tartrate salt of Compound (I), and crystalline Form T of a tosylate salt of Compound (I) was measured in fasted state simulated intestinal fluid (FaSSIF), fasted state simulated gastric fluid (FaSSGF), and water at 37° C. About 1.5 mL solution was stirred at 37° C. The salt was then added incrementally until a thin slurry was formed, followed by stirring overnight. The solids were allowed to settle, and the pH of the supernatant was taken. Supernatant was recovered for injection to HPLC and solids were recovered for XRPD.
Solubility was determined based on interpolation from a calibration curve prepared using freebase.

[2] = Dynamic vapor sorption (DVS); format: physicochemical
Method: DVS: Dynamic Vapor Sorption (DVS) was performed using a DVS Intrinsic 1. The sample was loaded into a sample pan and suspended from a microbalance. A typical sample mass for DVS measurement was 25 mg. Nitrogen gas bubbled through distilled water provided the desired relative humidity. A typical measurement comprised the following steps: • 1. Equilibrate at 50% RH • 2. 50% to 2%. (50%, 40%, 30%, 20%, 10%, and 2%) • a. Hold minimum of 5 minutes and maximum of 60 minutes at each humidity. The pass criteria was less than 0.002% change; • 3. 2% to 95% (2%, 10%, 20%, 30%, 40%, 50%, 60%, 70%, 80%, 90%, 95%) • a. Hold minimum of 5 minutes and maximum of 60 minutes at each humidity. The pass criteria was less than 0.002% change; • 4. 95% to 2% (95%, 80%, 70%, 60%, 50%, 40%, 30%, 20%, 10%, 2%) • a. Hold minimum of 5 minutes and maximum of 60 minutes at each humidity. The pass criteria was less than 0.002% change; • 5. 2% to 50% (2%, 10%, 20%, 30%, 40%, 50%) • a. Hold minimum of 5 minutes and maximum of 60 minutes at each humidity. The pass criteria was less than 0.002% change.

[3] = XRPD of solids recovered from the solubility slurries; format: physicochemical; details: 37° C.; for Stability of crystalline form upon slurrying (XRPD): overnight
Method: XRPD: X-ray powder diffraction was done using a Rigaku MiniFlex 600. Samples were prepared on Si zero-return wafers. Typical scans were obtained from 20 of 4 to 30 degrees, with step size 0.05 degrees over five minutes with 40 kV and 15 mA. High resolution scans were obtained from 20 of 4 to 40 degrees, with step size 0.05 degrees over thirty minutes with 40 kV and 15 mA. Typical parameters for XRPD are listed below.
Solids were recovered from the slurries for analysis by XRPD. Crystalline Form H was stable upon slurrying in all solutions. Crystalline Form Tr was stable upon slurrying in water.

patients = experiment: Clinical trials employing crystalline Form A: adverse effects; format: in vivo, human
From the text: In clinical trials employing crystalline Form A of Compound (I), adverse effects were categorized by severity into Grades 1-5. Most adverse events reported were Grade 1 or 2, indicating crystalline Form A of Compound (I) is well-tolerated. […] Severe dose limiting toxicities for other TKIs may be a result of inhibiting a broad range of kinases.

[4] = Stability comparison of the crystalline forms; format: physicochemical; details: ambient temperature

Cn1cc(-c2cc3c(N4CCN(c5ncc([C@@](C)(N)c6ccc(F)cc6)cn5)CC4)ncnn3c2)cn1 [crystalline Form C, (S)-1-(4-fluorophenyl)-1-(2-(4-(6-(1-methyl-1H-pyrazol-4-yl)pyrrolo[2,1-f][1,2,4]triazin-4-yl)piperazin-1-yl)pyrimidin-5-yl)ethan-1-amine]
Solubility, FaSSGF [1]: 2720 µg/mL (≈ 5.46 mM)
Solubility, FaSSIF [1]: 30 µg/mL (≈ 0.0602 mM)
Weight change in DVS experiment ([2]; 2-10% RH at 25° C.): 1.76%
Weight change in DVS experiment ([2]; 2-10% RH at 40° C.): 1.93%
Weight change in DVS experiment ([2]; 2-95% RH at 25° C.): 2.90%
Weight change in DVS experiment ([2]; 2-95% RH at 40° C.): 2.99%

Cn1cc(-c2cc3c(N4CCN(c5ncc([C@@](C)(N)c6ccc(F)cc6)cn5)CC4)ncnn3c2)cn1 [crystalline Form H]
Solubility, FaSSGF [1]: 4180 µg/mL (≈ 8.38 mM)
Solubility, FaSSIF [1]: 100 µg/mL (≈ 0.201 mM)
Stability of crystalline form upon slurrying (XRPD) ([3]; all solutions (FaSSIF, FaSSGF, water)): stable
Weight change in DVS experiment ([2]; 2-95% RH at room temperature): 15%
Weight change in DVS experiment ([2]; 80-95% RH at room temperature): 10.8%

Cn1cc(-c2cc3c(N4CCN(c5ncc([C@@](C)(N)c6ccc(F)cc6)cn5)CC4)ncnn3c2)cn1 [crystalline Form Tr]
Solubility, FaSSGF [1]: 4790 µg/mL (≈ 9.61 mM)
Solubility, FaSSIF [1]: 270 µg/mL (≈ 0.542 mM)
Stability of crystalline form upon slurrying (XRPD) ([3]; FaSSGF): converted into crystalline Form H
Behaviour of solid in slurry ([3]; FaSSIF): gummed
Stability of crystalline form upon slurrying (XRPD) ([3]; water): stable
Weight change in DVS experiment ([2]; 2-95% RH at room temperature): 4.4%

Cn1cc(-c2cc3c(N4CCN(c5ncc([C@@](C)(N)c6ccc(F)cc6)cn5)CC4)ncnn3c2)cn1 [crystalline Form T]
Solubility, FaSSGF [1]: 1880 µg/mL (≈ 3.77 mM)
Solubility, FaSSIF [1]: 80 µg/mL (≈ 0.16 mM)

Cn1cc(-c2cc3c(N4CCN(c5ncc([C@@](C)(N)c6ccc(F)cc6)cn5)CC4)ncnn3c2)cn1 [crystalline Form A, (S)-1-(4-fluorophenyl)-1-(2-(4-(6-(1-methyl-1H-pyrazol-4-yl)pyrrolo[2,1-f][1,2,4]triazin-4-yl)piperazin-1-yl)pyrimidin-5-yl)ethan-1-amine]
Severe dose limiting toxicities observed for other TKIs (dermatologic, hepatic, cardiovascular) (patients): did not exhibit
Severity grade of most adverse events reported (patients; Grades 1-5): Grade 1 or 2
Solubility, FaSSGF [1]: 2110 µg/mL (≈ 4.23 mM)
Stability relative to the other crystalline forms [4]: more stable
Hygroscopicity by DVS analysis [2]: non-hygroscopic
Weight change in DVS experiment ([2]; 2-95% RH at 25° C.): 0.42%
Weight change in DVS experiment ([2]; 2-95% RH at 40° C.): 0.29%
Weight change in DVS experiment ([2]; 70-95% RH at 40° C.): 0.20%
Moisture uptake by weight ([2]; exposed to 40° C. and up to 95% relative humidity): up to 0.44%

— patent US11964980B2, “Crystalline forms of (S)-1-(4-fluorophenyl)-1-(2-(4-(6-(1-methyl-1H-pyrazol-4-yl)pyrrolo[2,1- f][1,2,4]triazin-4-yl)piperazinyl)-pyrimidin-5-yl)ethan-1-amine and methods of making” (Blueprint Medicines Corporation, priority 2019, dated 2024)
